Results taken from patent publication US20110088107A1, “COMPOSITIONS AND METHODS FOR DERIVING OR CULTURING PLURIPOTENT CELLS” (priority 2009, published 2011).

How the values were obtained:
[1] = system: naive-hESCs/hiPSCs; assay: Signaling dependence of pluripotent cell lines, naive-hESC/hiPSC; format: cell-based, human; details: grown in PD/CH/FK/LIF, inhibitor or factor added
Protocol: (§1) Pluripotent cells were equally divided and plated on feeders in the indicated growth medium in which these cell lines are normally maintained, and 36 hours later the wells were supplemented with the indicated inhibitors or growth factors. After seven days, wells were fixed and stained to determine the relative percentage of colonies positive for pluripotency markers. SSEA1 staining was used for mouse stem cells. Colony formation was normalized to an internal control “Growth medium” without inhibitors (first left column). Normalized percentages lower than 5% are defined as “sensitivity” to the presence of the supplemented inhibitor. (B-C) Western blot analysis of total ERK1/2, phosphorylated ERK1/2 (pERK1/2) and phosphorylated Stat3 (pStat3). WIBR3 hESC and C1 hiPSC were grown in traditional bFGF/Activin containing media while naive-hESC/hiPSCs were grown in N2B27 PD/CH/FOR/LIF. ‘2×LIF’ indicates two fold increase in LIF concentration. (D) LIF/Stat3 is required for stabilization of naive-hESC/hiPSCs. Naïve NOD mESCs, WIBR3.5 and WIBR3.1 naive-hESC, and C1 naïve-hiPSCs were electroporated with a pBRY-CAGGS-flox-DsRedT4-IP control plasmid, a plasmid encoding a dominant negative Stat3 Y705F mutant (Stat3-DN), or a plasmid Stat3-C constitutively active mutant (pBRY-Stat3-CA). Cells were passaged three times in the presence of puromycin. After 20 days, colonies positive for pluripotency markers were counted and normalized to colonies from cells electroporated with empty vector (n=3 replicates for each condition). (E) RT-PCR expression of early germ cell markers in the presence or absence of BMP4/7/8 cytokines for 7 days. (F) Representative FISH analysis for XIST RNA (red) and Cot1 nuclear RNA (green). Pri-WIBR3.2 cell line was analyzed after passaging in conventional bFGF/serum-containing human ESC growth conditions. Numbers indicate average percentage of XIST positive nuclei counted.
(§2) Small molecules and cytokines were purchased from Tocris, Calbiochem or Sigma, and were supplemented as indicated at the following final concentration: JAK inhibitor (JAKi, 6 μM), Kenpaullone (KP, 5 μM), PD0325901 (PD, 1 μM); CHIR99021 (CH, […]), Forskolin (FK, 10 μM), FGF4-Receptor inhibitors PD173074 (0.1 μM) and SU5401 (2 μM); TGFβ/ALK inhibitors A83-01 (1 μM), RepSox (1 μM), ALK inhibitor (ALKi—SB431542, 2 μM); AICAR (0.5 mM); BixO1294 (1 μM); BayK8644 (1 μM); recombinant human BMP4 (10 ng/ml), recombinant human IL-6 (10 ng/ml), recombinant human TGFβ (500 ng/ml), Media with inhibitors was routinely replaced every 48 hours to sustain activity of compounds.

[2] = system: mEpiSCs; assay: Signaling dependence of pluripotent cell lines, mEpiSCs; format: cell-based, mouse; details: normal growth medium, inhibitor or factor added
Protocol: as §1, §2

[3] = system: hESCs; assay: Signaling dependence of pluripotent cell lines, conventional hESCs; format: cell-based, human; details: normal growth medium, inhibitor or factor added
Protocol: Pluripotent cells were equally divided and plated on feeders in the indicated growth medium in which these cell lines are normally maintained, and 36 hours later the wells were supplemented with the indicated inhibitors or growth factors. After seven days, wells were fixed and stained to determine the relative percentage of colonies positive for pluripotency markers. SSEA1 staining was used for mouse stem cells. Colony formation was normalized to an internal control “Growth medium” without inhibitors (first left column). […] (B-C) Western blot analysis of total ERK1/2, phosphorylated ERK1/2 (pERK1/2) and phosphorylated Stat3 (pStat3). WIBR3 hESC and C1 hiPSC were grown in traditional bFGF/Activin containing media while naive-hESC/hiPSCs were grown in N2B27 PD/CH/FOR/LIF. ‘2×LIF’ indicates two fold increase in LIF concentration. […] Cells were passaged three times in the presence of puromycin. […] (E) RT-PCR expression of early germ cell markers in the presence or absence of BMP4/7/8 cytokines for 7 days. (F) Representative FISH analysis for XIST RNA (red) and Cot1 nuclear RNA (green). Pri-WIBR3.2 cell line was analyzed after passaging in conventional bFGF/serum-containing human ESC growth conditions.

[4] = system: mESCs; assay: Signaling dependence of pluripotent cell lines, mESCs; format: cell-based, mouse; details: normal growth medium, inhibitor or factor added
Protocol: Pluripotent cells were equally divided and plated on feeders in the indicated growth medium in which these cell lines are normally maintained, and 36 hours later the wells were supplemented with the indicated inhibitors or growth factors. After seven days, wells were fixed and stained to determine the relative percentage of colonies positive for pluripotency markers. SSEA1 staining was used for mouse stem cells. Colony formation was normalized to an internal control “Growth medium” without inhibitors (first left column). Normalized percentages lower than 5% are defined as “sensitivity” to the presence of the supplemented inhibitor. (B-C) Western blot analysis of total ERK1/2, phosphorylated ERK1/2 (pERK1/2) and phosphorylated Stat3 (pStat3). WIBR3 hESC and C1 hiPSC were grown in traditional bFGF/Activin containing media while naive-hESC/hiPSCs were grown in N2B27 PD/CH/FOR/LIF. ‘2×LIF’ indicates two fold increase in LIF concentration. (D) LIF/Stat3 is required for stabilization of naive-hESC/hiPSCs. Naïve NOD mESCs, WIBR3.5 and WIBR3.1 naive-hESC, and C1 naïve-hiPSCs were electroporated with a pBRY-CAGGS-flox-DsRedT4-IP control plasmid, a plasmid encoding a dominant negative Stat3 Y705F mutant (Stat3-DN), or a plasmid Stat3-C constitutively active mutant (pBRY-Stat3-CA). Cells were passaged three times in the presence of puromycin. After 20 days, colonies positive for pluripotency markers were counted and normalized to colonies from cells electroporated with empty vector (n=3 replicates for each condition). (E) RT-PCR expression of early germ cell markers in the presence or absence of BMP4/7/8 cytokines for 7 days. (F) Representative FISH analysis for XIST RNA (red) and Cot1 nuclear RNA (green). Pri-WIBR3.2 cell line was analyzed after passaging in conventional bFGF/serum-containing human ESC growth conditions. Numbers indicate average percentage of XIST positive nuclei counted. […]

[5] = system: NOD-iPS cells; assay: Dox-independent propagation of Dox-dependent NOD-iPS cells in supplemented mESM; format: cell-based, mouse (NOD); details: mESM lacking Dox
From the text: FIGS. 4(A)-4(H) illustrate generation of genetically unmodified germline competent NOD ES cells. (A) Experimental outline for derivation of iPS lines that grow in the presence of small molecules and in the absence of Dox. Representative images of NOD iPS lines growing in mESM supplemented with the indicated small molecules or growth factors. (B) Single-cell cloning efficiency of NOD iPS cells in different growth conditions. WT or NOD-iPS cells grown in mESM and KP were sorted in 96 well plates and cultured in mESM supplemented with small molecules. The number of wells containing Nanog+ colonies was counted after 6 days. Efficiencies were normalized to that of C57B6/129F1-iPS cells (“permissive” controls) plated in mESM and defined as 100%. SD for average efficiencies from 2 experiments are shown. Student test P value compares KP/CH to PD/CH mESM conditions for NOD iPS cells. (C) Expansion of day E3.5 ICM derived NOD ES cells in the presence of KP, KP/CH or PD/CH and derivation of stable ES lines. Images of initial colonies observed at passage 2 after embryo dissociation are shown together with representative images at later passages. (D) Karyotype of NOD ES lines. (E) Immunostaining of NOD ES lines for pluripotency markers. Inhibitors used during cell line derivation and propagation are indicated. (F) Chimerism in adult mice generated from the indicated cell lines is evident by the presence of agouti (brown) and albino coat color originating from the NOD background. […] (G) Real-Time PCR analysis for endogenous expressed Oct4, c-Myc and Klf4 genes in NOD iPS and ES cells grown in the indicated conditions. Relative expression levels are normalized to levels detected in control 129 ES cells. (H) Southern analysis indicating correct targeting of the endogenous Nanog locus in NOD ES cells with Nanog-GFP knock-in targeting construct.
Small molecules have been identified to replace some of the reprogramming factors in iPS derivation (Huangfu et al., 2008; Shi et al., 2008). […]

[6] = system: C1.2 hiPSCs; assay: Screen for factors stabilizing C1 hiPSCs upon DOX withdrawal; format: cell-based, human; details: C1.2 hiPSCs without DOX
Protocol: FIGS. 9(A)-9(D) show the in vitro stabilization of naïve human pluripotent stem cells. […] C1 cells were plated on feeders in N2B27 media with the indicated factors. p-values using student's t-test indicates significant change in comparison to cells grown in DOX/PD/CH/LIF conditions, which were defined as a control (100% survival). (B) Scheme for reverting hESCs to generate “naive-hESCs”. (C) Representative images of WIBR3 hESCs at different stages of the reversion process in PD/CH/LIF/FK (P indicates passage number). (D) Representative images of naive-WIBR3.5 hESC line, derived by plating WIBR3 hESCs in PD/CH/FK/LIF medium without transfection of exogenous factors. Magnifications of captured images are indicated. Naïve human pluripotent cells were grown in serum-free N2B27 based media. […] Throughout the manuscript, indicated passage numbers of naïve-hiPSC/hESCs indicates number of passages counted after induction of the naïve state. […]

Compound	effect on pluripotency of naive-hESCs/hiPSCs [1]	effect on pluripotency of mEpiSCs [2]	effect on pluripotency of conventional hESCs [3]	effect on pluripotency of mESCs [4]	Dox-independent growth of pluripotent NOD-iPS cells [5]	role in the 13i+LIF cocktail on removing one inhibitor at a time [6]
Cc1cccc(-c2nn(C(=S)Nc3ccccc3)cc2-c2ccnc3ccccc23)n1 [A83-01]	maintained their pluripotent state	rapidly differentiated	rapidly differentiated	maintained their pluripotent state		
Cc1c[nH]c(-c2cnc(NCCNc3ccc(C#N)cn3)nc2-c2ccc(Cl)cc2Cl)n1 [CHIR99021]					supported Dox-independent growth	crucial components
CCN(CC)CCCCNc1ncc2cc(-c3cc(OC)cc(OC)c3)c(NC(=O)NC(C)(C)C)nc2n1 [PD173074]	but not of naive-hESCs/hiPSCs or mESCs	resulted in the differentiation	resulted in the differentiation			
O=C(NOC[C@H](O)CO)c1ccc(F)c(F)c1Nc1ccc(I)cc1F [PD]			could not be propagated			crucial components
TGFβ	differentiated			differentiated		
Wnt3a					supported Dox-independent growth	
